Earlier results, collected in patent US20060039891A1, “Antineoplastic-dendritic polymer drug delivery system” (priority 2001, published 2006).

Columns and labels:
[1] = tested on: B16F10 S.C. tumor; conditions: at maximum tolerated dose via I.V. administration
[2] = I.V. administration

**Q.** With `N.N.[Cl][Pt][Cl]` [cisplatin, cis-diamminedichloro platinate (II)] as the compound, how does the “response of B16F10 tumor models” value [1] read?
**A.** resistant

**Q.** What about the maximum tolerated dose [2] of the same compound?
**A.** about 1 mg/kg
